Laboratory results as given in US20220381790A1, “SELECTION AND BLOCKADE OF FERTILIZATION COMPETENT MALE AND FEMALE GAMETES” (University of Virginia Patent Foundation, priority 2019, published 2022).
“Also recorded” adds a separate entry of the source. Each block holds one molecule with its values, some of them ahead of it.

Tests used:
[1] = system: C2C12 myoblasts; assay: Sperm:myoblast fusion assay; type: cell-based, mouse; conditions: 4 h co-culture; for sperm:myoblast fusion (Calcein-AM+ myoblasts): Calcein-AM labeled sperm, 50 μg/ml GST-BAI1-TSR on sperm, 80 μM EHT-1864, 5 μg/ml Cytochalasin D, 4% PFA; for DiI+ myoblasts (transfer of the dye DiI from the sperm to the myoblasts): DiI-labeled sperm
Description: To stain sperm with the dyes Calcein-AM or DiI, caudal sperm were allowed to swim in TYH+0.75 mM Methyl-beta-cyclodextrin (MBCD)^67 for 15 min, counted and stained with 4 μM Calcein red orange-AM (Invitrogen) for 30 min in PBS at room temperature or with 5 μg/ml DiI (Invitrogen) for 30 min at 37° C. in HBSS, as previously described^60. Cells were washed, counted and resuspended in DMEM medium supplemented with 20% heat inactivated FBS.
Sperm:myoblast fusion experiments. C2C12 murine skeletal muscle myoblasts (ATCC) were maintained at sub-confluent densities in DMEM medium supplemented with 20% heat inactivated FBS at 37° C., 8.5% CO2. Cells were trypsinized, counted and plated in 4-well LabTek II Permanox chamber slides (25,000 cells/well). After 24 h, myoblasts were treated with appropriate buffer alone, or 5 μg/ml Cytochalasin D (Sigma), 80 μM RAC1 inhibitor (EHT-1864), or incubated with Abs (BAI3 [R&D Systems, MAB39651] or CD9 [BD Biosciences]) for 30 min at 37° C., 8.5% CO2 prior to the sperm co-incubation. Alternatively, myoblasts were fixed with 4% PFA for 20 min and washed several times. Calcein-AM+ sperm (250,000 sperm/well) were added and incubated for 4 h at 37° C., 8.5% CO2. The blocking agents were also present during the co-incubation except for Cytochalasin D, which was used only during the preincubation to avoid affecting the sperm. Sperm were pretreated with 50 μg/ml GST or 50 μg/ml GST-BAI1-TSR for 30 min and then added to the myoblasts. C2C12 myoblasts with shRNA-mediated Elmo2 knockdown have been described previously^25. After the 4 h co-incubation, myoblasts were washed, stained with Hoechst and mounted. Cells were analyzed the same day and 6-8 fields/well were photographed using the Axio Imager 2 with Apotome (Zeiss). Image J cell counter plugin software was used to quantitate nuclei number. The fusion index was calculated as the percentage of Calcein AM^+ myoblasts in the experimental group normalized to the control untreated cells.

[2] = system: ZP-free oocytes; assay: In vitro fertilization assay, competition with soluble head group of PtdSer; type: cell-based, mouse; conditions: 1 mM, ZP-free oocytes with capacitated sperm for 1 h, 2-cell embryos after overnight incubation
Description: In vitro fertilization (IVF) assays. IVF was performed as previously described^68. Briefly, 4-5 week old female mice were super-ovulated by intraperitoneal injections of 5 IU of pregnant mare serum gonadotropin (PMSG, Prospec) and 5 IU of human chorionic gonadotropin (hCG, Sigma) 48 hours (h) later. Metaphase II oocytes were recovered 13 h after hCG, and were: 1) directly used as cumulus oocyte complexes (COC), 2) freed from cumulus cells by a brief incubation with 3 mg/ml hyaluronidase (Sigma) in 0.01% poly vinyl alcohol (PVA)/FHM medium (EMD Millipore). These oocytes were labeled as Zona pellucida (ZP)-intact oocytes; or 3) freed from cumulus cells and ZP using Tyrode's solution (Sigma) (ZP-free oocytes). Sperm were collected from the cauda epididymides of adult (>10 week-old) wild-type male mice and capacitated for 90 min in TYH+BSA medium (described above, Sperm staining section). All the incubations were performed in medium drops under paraffin oil (Sigma) at 37° C., 5% CO2 atmosphere. To evaluate the role of PtdSer exposed on sperm, cumulus oocyte complexes (n=30-60) were inseminated with 2-4×10^4 sperm capacitated for 60-90 min in TYH+BSA (in most of the experiments) or in TYH+MBCD^67 (in the experiment to test the effect of Annexin V in fertilization, FIG. 1K). During the last 30 min of capacitation, sperm were incubated with 10 μg/ml Annexin V (Ebiosciences), 50 μg/ml GST or 50 μg/ml GST-BAI1-TSR. After co-culture of oocytes and sperm in 100 μl drops of high calcium human tubal fluid (HTF) supplemented with 1 mM reduced glutathione (GSH) medium for 4 hours^67, eggs were washed several times and transferred to KSOM medium (EMD Millipore). The percentage of 2-cell embryos (fertilized eggs) was determined at 24 hours post insemination. […] After washes and an overnight incubation the percentage of 2-cell embryos was evaluated.

[3] = system: PtdSer exposed on sperm; assay: In vitro fertilization assay, masking PtdSer on sperm; type: cell-based, mouse; conditions: 2-cell embryos at 24 h
Description: In vitro fertilization (IVF) assays. IVF was performed as previously described^68. Briefly, 4-5 week old female mice were super-ovulated by intraperitoneal injections of 5 IU of pregnant mare serum gonadotropin (PMSG, Prospec) and 5 IU of human chorionic gonadotropin (hCG, Sigma) 48 hours (h) later. Metaphase II oocytes were recovered 13 h after hCG, and were: 1) directly used as cumulus oocyte complexes (COC), 2) freed from cumulus cells by a brief incubation with 3 mg/ml hyaluronidase (Sigma) in 0.01% poly vinyl alcohol (PVA)/FHM medium (EMD Millipore). These oocytes were labeled as Zona pellucida (ZP)-intact oocytes; or 3) freed from cumulus cells and ZP using Tyrode's solution (Sigma) (ZP-free oocytes). Sperm were collected from the cauda epididymides of adult (>10 week-old) wild-type male mice and capacitated for 90 min in TYH+BSA medium (described above, Sperm staining section). […]
To evaluate the role of PtdSer exposed on sperm, cumulus oocyte complexes (n=30-60) were inseminated with 2-4×10^4 sperm capacitated for 60-90 min in TYH+BSA (in most of the experiments) or in TYH+MBCD^67 (in the experiment to test the effect of Annexin V in fertilization, FIG. 1K). […] The percentage of 2-cell embryos (fertilized eggs) was determined at 24 hours post insemination. […] After washes and an overnight incubation the percentage of 2-cell embryos was evaluated.

[4] = system: sperm; assay: Sperm progressive motility; type: cell-based, mouse; conditions: for progressive motility of the sperm: 10 μg/ml Annexin V, 50 μg/ml GST or 50 μg/ml GST-BAI1-TSR
Description: To evaluate the role of PtdSer exposed on sperm, cumulus oocyte complexes (n=30-60) were inseminated with 2-4×10^4 sperm capacitated for 60-90 min in TYH+BSA (in most of the experiments) or in TYH+MBCD^67 (in the experiment to test the effect of Annexin V in fertilization, FIG. 1K). During the last 30 min of capacitation, sperm were incubated with 10 μg/ml Annexin V (Ebiosciences), 50 μg/ml GST or 50 μg/ml GST-BAI1-TSR. After co-culture of oocytes and sperm in 100 μl drops of high calcium human tubal fluid (HTF) supplemented with 1 mM reduced glutathione (GSH) medium for 4 hours^67, eggs were washed several times and transferred to KSOM medium (EMD Millipore). The percentage of 2-cell embryos (fertilized eggs) was determined at 24 hours post insemination. Sperm motility upon incubation with control medium, Annexin V, GST or GST-BAI1-TSR was graded as progressive motility, non-progressive motility, and immotility, according to the criteria of the 5th Edition of the World Health Organization (WHO) Laboratory Manual for the Examination and Processing of Human Semen. The non-progressive motility and immotility numbers were grouped together. To test the soluble head group of PtdSer, O-Phospho-L-Serine (Sigma) and its control O-Phospho-D-Serine (Sigma) in IVF assays, ˜20 ZP-free oocytes isolated from wt mice were incubated 1×10^3 capacitated sperm in 20-μl droplets for 1 h in the presence of 1 mM O-Phospho-L-Serine or O-Phospho-D-Serine. After washes and an overnight incubation the percentage of 2-cell embryos was evaluated.

[5] = annexin V for PS; cited from earlier work
[6] = system: RAC1 in ZP-free oocytes; assay: Sperm DNA decondensation assay with RAC1 inhibitor; type: cell-based, mouse; conditions: 80 μM, oocytes preincubated 1-2 h, inhibitor present during 1 h insemination
Description: To evaluate the role of RAC1, ZP-free oocytes were prepared as described above, loaded with 10 μg/ml DAPI (BioRad) for 20 min at 37° C., 5% CO2, and washed several times in TYH+BSA 3. Twenty oocytes, either untreated or previously incubated with RAC1 inhibitor (80 μM, EHT-1864, Sigma) for 1-2 h were inseminated with 1000 capacitated sperm for 1 h in 20 μl drops of TYH+BSA medium at 37° C., 5% CO2. RAC1 inhibitor was also present the fertilization steps. After 3 washes, oocytes were fixed in 0.25% glutaraldehyde and 0.1% paraformaldehyde for 20 min at room temperature, washed and mounted. The percentage of oocytes with DAPI^+ decondensed sperm nuclei (typically 1-2/oocyte) was evaluated by microscopy.

[7] = system: ZP-free wild-type oocytes; assay: Binding of 2 μm carboxylate modified beads to oocytes; type: cell-based, mouse; conditions: beads pretreated with 50 μg/ml GST-BAI1-TSR for 30 min; oocytes with >5 bound beads scored
Description: The presence of functional PtdSer receptors on mouse ZP-free wild-type oocytes was evaluated by incubation with 2 μm carboxylate modified red (580/605) beads (1:400, Invitrogen, FluoSpheres) for 2 h in TYH+BSA at 37° C., 5% CO2. Beads were pre-treated with medium only, 50 μg/ml GST or 50 μg/ml GST-BAI1-TSR for 30 min. Oocytes were washed 6 times in TYH+BSA, stained with CD9 antibody for 30 min at 37° C., 5% CO2 in TYH+BSA, fixed in 4% PFA+1% BSA and stained with Hoechst. The percentage of oocytes with bound beads was determined by microscopy. We scored oocytes with >5 bound beads, since accurately counting individual beads, particularly in oocytes of the control groups that bound multiple beads was unfeasible.

Molecule: C=C1[C@@H](C)[C@H]2[C@H](Cc3ccccc3)NC(=O)[C@]23[C@H](OC(C)=O)/C=C/[C@@](C)(O)C(=O)[C@@H](C)C/C=C/[C@H]3[C@@H]1O [cytochalasin D, reference compound]
sperm:myoblast fusion (Calcein-AM+ myoblasts) [1]: abrogated

Molecule: paraformaldehyde
sperm:myoblast fusion (Calcein-AM+ myoblasts) [1]: abrogated
DiI+ myoblasts (transfer of the dye DiI from the sperm to the myoblasts) [1]: blocked

Molecule: N[C@@H](COP(=O)(O)O)C(=O)O [Phospho-L-Serine, O-Phospho-L-Serine]
effect on fertilization (2-cell embryos) [2]: significant reduction in fertilization
inhibition at 1000 µM ([2]; Mus musculus, Oocyte, read-out: partial inhibition of fertilization): 30 to 40%

Molecule: N[C@H](COP(=O)(O)O)C(=O)O [Phospho-D-Serine, O-Phospho-D-Serine]
effect on fertilization (2-cell embryos) [2]: did not inhibit fertilization

Molecule: Annexin V: PtdSer-binding protein reagent (Ebiosciences) used to mask PtdSer on sperm; highest affinity of the three blocking agents
reduction in fertilization ([3]; 10 μg/ml Annexin V on capacitated caudal sperm, in three out of four independent experiments): > 85%
progressive motility of the sperm [4]: not affected; also recorded: No significant differences
Kd [5]: 6.6 nM

Molecule: O=c1cc(CN2CCOCC2)occ1OCCCCCSc1ccnc2cc(C(F)(F)F)ccc12 [EHT-1864, reference compound]
sperm motility ([4]; sperm incubated with EHT-1864 alone under the assay conditions): no reduction in the motility
number of oocytes with decondensed sperm DNA [6]: significant reduction
sperm:myoblast fusion (Calcein-AM+ myoblasts) [1]: potently blocked
DiI+ myoblasts (transfer of the dye DiI from the sperm to the myoblasts) [1]: blocked

Molecule: GST: glutathione-S-transferase control protein, SEQ ID NO: 1 [reference compound]
progressive motility of the sperm [4]: No significant differences

binding of carboxylate modified beads to oocytes [7]: significantly decreased
Molecule: BAI1-TSR: soluble extracellular fragment of the PtdSer recognition receptor BAI1 (residues 202-585) fused to glutathione-S-transferase; SEQ ID NOs: 1 and 2
effect on fertilization (2-cell embryos) ([3]; sperm incubated with 50 μg/ml GST-BAI1-TSR): significantly reduced fertilization
progressive motility of the sperm [4]: not affected
progressive motility of the sperm ([4]; listed as GST-BAI1-TSR): No significant differences
sperm:myoblast fusion (Calcein-AM+ myoblasts) [1]: significantly decreased the fusion
